{"source": "patent US7569695B2", "about": "“Dyes for the detection or quantification of desirable target molecules” (Enzo Life Sciences, Inc., priority 2005, dated 2009)", "key": {"[1]": {"test_system": "78 bp amplicon from the anti-sense C construct", "experiment": "Amplification of nucleic acids in the presence of dye using a standard PCR machine (Example 34)", "type": "biochemical", "settings": "for amplicon synthesis (gel analysis, FIG. 2): 20 cycles", "description": "The experiment shown in Example 33 was repeated using a standard PCR machine for synthesis to see if the effects observed in Example 33 was dependent upon the rapid heating and cooling steps used in the Light Cycler.\nA master mixture was made up of: • 500 µl of 2× PCR mix described in example 33 • 20 µl of 25 mM MgCl2 • 175 µl of DEPC treated H2O • 10 ul of 1 u/l ung (Epicentre) • 10 µl of 10 mg/ml BSA (New England Biolabs, Beverly, Mass.) • 10 l Taq polymease (Perkin Elmer)+10 µl of TaqStart (Clontech) PCR conditions were 2.5 µl of target template+2.0 l of dye was added to 15.5 µl of Master mixture incubated at 45° C. for 10 minutes and then amplified using cycles of: • a) 94° C. for 30 seconds • b) 65° C. for 30 seconds • c) 72° C. for 1 minute\nA duplicate set of samples was amplified with one set being taken out after 20 cycles of amplification and the second set undergoing 40 cycles. […] The other effect previously observed was also seen, i.e. non-target amplicon synthesis seen in the no Dye reaction (lane 1) was reduced with the 1:200 dilution of SYBR Green and the 1:10 dilution of Dye 109 again repeating the results of Example 33."}, "[2]": {"test_system": "78 bp amplicon of the anti-sense C construct", "experiment": "Amplification on the Light Cycler in the presence of Dye 122 and 109a, 19 cycles (Example 35)", "type": "biochemical", "excerpt": "A target template was amplified on the Light Cycler (Roche) in the presence of various amounts of SYBR Green and Dye 122 from Example 32. In addition, a byproduct from the silica gel chromatography of Dye 109 in step (g) of Example 14 was also used. This compound is believed to have a single protonation of one of the amines of Dye 109 and as such will be termed Dye 109a. The stock of Dye 122 was OD=200 measured at 488 nm and the stock of Dye 109a was OD=200 measured at 498 nm. The template was a 1:50,000 dilution of the 78 bp amplicon of the anti-sense C construct described previously. • A master-mixture was made up of: • 350 µl of 2×PCR mix described in Example 33 • 14 l of 25 mM MgCl2 • 175.0 l of DEPC treated H2O • 7 l of 10 mg/ml BSA (New England Biolabs, Beverly, Mass.) • 7 l Taq polymease (Perkin Elmer)+7 l of TaqStart (Clontech)\n2.0 l of target template+2.0 l of various dye dilutions were added to 16 µl of Master mixture, and then amplified as described previously in Example 33 except that the incubation at 45° C. for 10 minutes was eliminated since ung was not used for this series of amplifications. The amplification was stopped after 19 cycles. The results of this series of amplifications are seen in FIG. 3. […] For Dye 109a, similar features were seen where 1:10 was inhibitory (lane 18) and 1:30 was optimal (lanes 19 and 20)."}}}
{"compound": "CCCN(CCCN(C)C)c1cc(/C=C2/Sc3ccccc3N2C)c2ccccc2[n+]1-c1ccccc1", "note": "[SYBR Green, reference compound]", "values": [{"measurement": "amplicon synthesis (gel analysis, FIG. 2)", "setting": "[1]; 1:200 dilution of SYBR Green, lanes 5 and 6", "value": "a single discrete band"}, {"measurement": "amplicon synthesis (gel analysis, FIG. 2)", "setting": "[1]; all other SYBR Green dilutions", "value": "no synthesis was evident"}, {"measurement": "non-target amplicon synthesis compared to the no Dye reaction", "setting": "[1]; 40 cycles, 1:200 dilution of SYBR Green", "value": "reduced"}, {"measurement": "amplification (gel analysis, FIG. 3)", "setting": "[2]; 1:800 dilution of SYBR Green, lanes 4 and 5", "value": "best amplification"}, {"measurement": "amplification (gel analysis, FIG. 3)", "setting": "[2]; SYBR Green dilutions on either side of 1:800", "value": "sharp drop off"}]}
